Experimental data taken from US7138361B2, “Herbicidal heterocycles” (E. I. du Pont de Nemours and Company, priority 2000, dated 2006).

Tests used:
Type in all cases: in vivo
[1] = test system: Surinam grass (Brachiaria decumbens); test: Test B postemergence; conditions: 13 to 15 days
How it was run: (§1)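 Pre: seeded pots sprayed, chemical in non-phytotoxic solvent/surfactant mix. Post: plants 2–18 cm, 1–4 leaf, same formulation. Greenhouse 13–15 d; visual % control vs untreated, 0–100 scale.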

[2] = test system: barnyardgrass (Echinochloa crus-galli); test: Test B postemergence; conditions: 13 to 15 days
How it was run: as §1

[3] = test system: blackgrass (Alopecurus myosuroides); test: Test B postemergence; conditions: 13 to 15 days
How it was run: as §1

[4] = test system: cocklebur (Xanthium strumarium); test: Test B postemergence; conditions: 13 to 15 days
How it was run: as §1

corn (Zea mays) [5] = test: Test B postemergence; conditions: 13 to 15 days
How it was run: as §1

[6] = test system: crabgrass (Digitaria sanguinalis); test: Test B postemergence; conditions: 13 to 15 days
How it was run: as §1

[7] = test system: giant foxtail (Setaria faberii); test: Test B postemergence; conditions: 13 to 15 days
How it was run: as §1

[8] = test system: lambsquarters (Chenopodium album); test: Test B postemergence; conditions: 13 to 15 days
How it was run: as §1

[9] = test system: morning glory (Ipomoea hederacea); test: Test B postemergence; conditions: 13 to 15 days
How it was run: as §1

[10] = test system: pigweed (Amaranthus retroflexus); test: Test B postemergence; conditions: 13 to 15 days
How it was run: as §1

[11] = test system: velvetleaf (Abutilon theophrasti); test: Test B postemergence; conditions: 13 to 15 days
How it was run: as §1

[12] = test system: wheat (Triticum aestivum); test: Test B postemergence; conditions: 13 to 15 days
How it was run: as §1

wild oat (Avena fatua) = test: Test B postemergence; conditions: 13 to 15 days
How it was run: as §1

Sunflower [13] = test: Test C preemergence; conditions: scale 0 to 100, 0 no effect, 100 complete control
[14] = test system: bermudagrass (Cynodon dactylon); test: Test C preemergence; conditions: for Plant response rating (0 to 100 where 0 is no effect and 100 is complete control), Bermudagrass: visual evaluation after 12 to 14 days
How it was run: (§2)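 Test chemicals, formulated in a non-phytotoxic solvent mixture with surfactant, were applied preemergence to planted seeds or postemergence to plants 2 to 18 cm tall (1- to 4-leaf stage). After 12 to 14 days in a greenhouse, injury was visually rated against untreated controls on a 0–100 scale.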

corn (Zea mays) [15] = test: Test C preemergence; conditions: for Plant response rating (0 to 100), Corn: visual evaluation after 12 to 14 days
How it was run: as §2

[16] = test system: giant foxtail (Setaria faberii); test: Test C preemergence; conditions: for Plant response rating (0 to 100), Foxtail, Giant: visual evaluation after 12 to 14 days
How it was run: as §2

[17] = test system: johnsongrass (Sorghum halepense); test: Test C preemergence; conditions: for Plant response rating (0 to 100), Johnsongrass: visual evaluation after 12 to 14 days
How it was run: as §2

kochia (Kochia scoparia) = test: Test C preemergence; conditions: for Plant response rating (0 to 100), Kochia: visual evaluation after 12 to 14 days
How it was run: as §2

[18] = test system: morningglory (Ipomoea hederacea); test: Test C preemergence; conditions: for Plant response rating (0 to 100), Morningglory: visual evaluation after 12 to 14 days
How it was run: as §2

[19] = test system: velvetleaf (Abutilon theophrasti); test: Test C preemergence; conditions: for Plant response rating (0 to 100), Velvetleaf: visual evaluation after 12 to 14 days
How it was run: as §2

[20] = test system: yellow nutsedge (Cyperus esculentus); test: Test C preemergence; conditions: for Plant response rating (0 to 100), Nutsedge: visual evaluation after 12 to 14 days
How it was run: as §2

Sunflower [21] = test: Test C preemergence; conditions: visual evaluation after 12 to 14 days
[22] = Rate 125 g/ha, scale 0 (no effect) to 100 (complete control)
[23] = Rate 500 g/ha, scale 0 to 100, 0 is no effect, 100 is complete control
[24] = Rate 125 g/ha, scale 0 to 100, 0 no effect, 100 complete control
[25] = preemergence, Rate 62 g/ha, scale 0 to 100
[26] = preemergence, Rate 250 g/ha, scale 0 to 100, 0 no effect, 100 complete control
[27] = Rate 62 g/ha, scale 0 to 100, 0 no effect, 100 complete control
[28] = preemergence, Rate 31 g/ha, scale 0 to 100
[29] = preemergence, Rate 125 g/ha, scale 0 to 100, 0 no effect, 100 complete control

SMILES: CCCC(C)c1ccn(C2OCN(c3cccc(C(F)(F)F)c3)C2=O)n1 (stereo not drawn) [Compound 89]
- Plant response rating, Surinam grass [1, 22]: 0
- Plant response rating, Surinam grass [1, 23]: 0
- Plant response rating, Barnyardgrass [2, 22]: 0
- Plant response rating, Barnyardgrass [2, 23]: 80
- Plant response rating, Blackgrass [3, 22]: 0
- Plant response rating, Blackgrass [3, 23]: 0
- Plant response rating, Cocklebur [4, 22]: 0
- Plant response rating, Cocklebur [4, 23]: 30
- Plant response rating, Corn (corn (Zea mays) [5]; [22]): 30
- Plant response rating, Corn (corn (Zea mays) [5]; [23]): 0
- Plant response rating, Crabgrass [6, 22]: 0
- Plant response rating, Crabgrass [6, 23]: 60
- Plant response rating, Foxtail, Giant [7, 22]: 90
- Plant response rating, Foxtail, Giant [7, 23]: 70
- Plant response rating, Lambsquarters [8, 23]: 100
- Plant response rating, Morningglory [9, 23]: 40
- Plant response rating, Pigweed [10, 23]: 90
- Plant response rating, Velvetleaf [11, 23]: 0
- Plant response rating, Wheat [12, 23]: 0
- Plant response rating, Wild Oat (wild oat (Avena fatua); [23]): 0
- Plant response rating, Sunflower (Sunflower [13]; Rate 125 g/ha): 0
- Plant response rating, Bermudagrass [14, 24]: 90
- Plant response rating, Bermudagrass [14, 25]: 10
- Plant response rating (0 to 100 where 0 is no effect and 100 is complete control), Bermudagrass ([14]; preemergence, Rate 500 g/ha): 100
- Plant response rating, Bermudagrass [14, 26]: 90
- Plant response rating, Corn (corn (Zea mays) [15]; [24]): 25
- Plant response rating, Corn (corn (Zea mays) [15]; [25]): 10
- Plant response rating (0 to 100), Corn (corn (Zea mays) [15]; preemergence, Rate 500 g/ha): 30
- Plant response rating, Corn (corn (Zea mays) [15]; [26]): 30
- Plant response rating, Foxtail, Giant [16, 24]: 0
- Plant response rating, Foxtail, Giant [16, 25]: 0
- Plant response rating (0 to 100), Foxtail, Giant ([16]; preemergence, Rate 500 g/ha): 100
- Plant response rating, Foxtail, Giant [16, 26]: 0
- Plant response rating, Johnsongrass [17, 24]: 70
- Plant response rating, Johnsongrass [17, 25]: 50
- Plant response rating (0 to 100), Johnsongrass ([17]; preemergence, Rate 500 g/ha): 100
- Plant response rating, Johnsongrass [17, 26]: 70
- Plant response rating, Kochia (kochia (Kochia scoparia); [24]): 70
- Plant response rating, Kochia (kochia (Kochia scoparia); [25]): 20
- Plant response rating (0 to 100), Kochia (kochia (Kochia scoparia); preemergence, Rate 500 g/ha): 100
- Plant response rating, Kochia (kochia (Kochia scoparia); [26]): 90
- Plant response rating, Morningglory [18, 24]: 0
- Plant response rating, Morningglory [18, 25]: 0
- Plant response rating (0 to 100), Morningglory ([18]; preemergence, Rate 500 g/ha): 0
- Plant response rating, Morningglory [18, 26]: 0
- Plant response rating, Velvetleaf [19, 24]: 0
- Plant response rating, Velvetleaf [19, 25]: 0
- Plant response rating (0 to 100), Velvetleaf ([19]; preemergence, Rate 500 g/ha): 10
- Plant response rating, Velvetleaf [19, 26]: 0
- Plant response rating, Nutsedge [20, 24]: 0
- Plant response rating, Nutsedge [20, 25]: 0
- Plant response rating (0 to 100), Nutsedge ([20]; preemergence, Rate 500 g/ha): 0
- Plant response rating, Nutsedge [20, 26]: 0
- Plant response rating (0 to 100), Sunflower (Sunflower [21]; Rate 500 g/ha): 60

SMILES: O=C1C(n2ccc(C3CC3)n2)OCN1c1cccc(C(F)(F)F)c1 (stereo not drawn) [Compound 28]
- Plant response rating, Surinam grass [1, 22]: 0
- Plant response rating, Surinam grass [1, 23]: 0
- Plant response rating, Barnyardgrass [2, 22]: 0
- Plant response rating, Barnyardgrass [2, 23]: 60
- Plant response rating, Blackgrass [3, 22]: 0
- Plant response rating, Blackgrass [3, 23]: 0
- Plant response rating, Cocklebur [4, 22]: 0
- Plant response rating, Cocklebur [4, 23]: 0
- Plant response rating, Corn (corn (Zea mays) [5]; [22]): 0
- Plant response rating, Corn (corn (Zea mays) [5]; [23]): 0
- Plant response rating, Crabgrass [6, 22]: 20
- Plant response rating, Crabgrass [6, 23]: 30
- Plant response rating, Foxtail, Giant [7, 22]: 0
- Plant response rating, Foxtail, Giant [7, 23]: 30
- Plant response rating, Lambsquarters [8, 22]: 60
- Plant response rating, Lambsquarters [8, 23]: 70
- Plant response rating, Morningglory [9, 22]: 0
- Plant response rating, Morningglory [9, 23]: 0
- Plant response rating, Pigweed [10, 22]: 30
- Plant response rating, Pigweed [10, 23]: 30
- Plant response rating, Velvetleaf [11, 22]: 0
- Plant response rating, Velvetleaf [11, 23]: 0
- Plant response rating, Wheat [12, 22]: 0
- Plant response rating, Wheat [12, 23]: 0
- Plant response rating, Wild Oat (wild oat (Avena fatua); [22]): 0
- Plant response rating, Wild Oat (wild oat (Avena fatua); [23]): 0
- Plant response rating, Sunflower (Sunflower [13]; Rate 62 g/ha): 20
- Plant response rating, Bermudagrass [14, 27]: 50
- Plant response rating, Bermudagrass [14, 28]: 20
- Plant response rating (0 to 100 where 0 is no effect and 100 is complete control), Bermudagrass ([14]; preemergence, Rate 250 g/ha): 100
- Plant response rating, Bermudagrass [14, 29]: 100
- Plant response rating, Corn (corn (Zea mays) [15]; [27]): 0
- Plant response rating, Corn (corn (Zea mays) [15]; [28]): 0
- Plant response rating (0 to 100), Corn (corn (Zea mays) [15]; preemergence, Rate 250 g/ha): 30
- Plant response rating, Corn (corn (Zea mays) [15]; [29]): 30
- Plant response rating, Foxtail, Giant [16, 27]: 0
- Plant response rating, Foxtail, Giant [16, 28]: 0
- Plant response rating (0 to 100), Foxtail, Giant ([16]; preemergence, Rate 250 g/ha): 0
- Plant response rating, Foxtail, Giant [16, 29]: 100
- Plant response rating, Johnsongrass [17, 27]: 50
- Plant response rating, Johnsongrass [17, 28]: 0
- Plant response rating (0 to 100), Johnsongrass ([17]; preemergence, Rate 250 g/ha): 70
- Plant response rating, Johnsongrass [17, 29]: 70
- Plant response rating, Kochia (kochia (Kochia scoparia); [27]): 40
- Plant response rating, Kochia (kochia (Kochia scoparia); [28]): 0
- Plant response rating (0 to 100), Kochia (kochia (Kochia scoparia); preemergence, Rate 250 g/ha): 100
- Plant response rating, Kochia (kochia (Kochia scoparia); [29]): 100
- Plant response rating, Morningglory [18, 27]: 0
- Plant response rating, Morningglory [18, 28]: 0
- Plant response rating (0 to 100), Morningglory ([18]; preemergence, Rate 250 g/ha): 0
- Plant response rating, Morningglory [18, 29]: 0
- Plant response rating, Velvetleaf [19, 27]: 0
- Plant response rating, Velvetleaf [19, 28]: 0
- Plant response rating (0 to 100), Velvetleaf ([19]; preemergence, Rate 250 g/ha): 0
- Plant response rating, Velvetleaf [19, 29]: 0
- Plant response rating, Nutsedge [20, 27]: 50
- Plant response rating, Nutsedge [20, 28]: 50
- Plant response rating (0 to 100), Nutsedge ([20]; preemergence, Rate 250 g/ha): 50
- Plant response rating, Nutsedge [20, 29]: 50
- Plant response rating (0 to 100), Sunflower (Sunflower [21]; Rate 250 g/ha): 40
